Here are results for two molecules from US6602512B1, “Composition for the prevention of muscle fatique and skeletal muscle adaptation of strenuous exercise” (Sigma-Tau HealthScience S.p.A., priority 1999, dated 2003).

SMILES strings stand for the structures.

One experiment deals with mice. In words: Muscle fatigue test (swimming endurance). It is filed as in vivo. To be noted: for swimming endurance time (in words): daily oral 200 mg/kg over 6 days, versus controls; for Swimming time: daily oral doses of 200 mg/kg of each compound over 6 days preceding the test. The protocol: The method described by Zheng (Zheng R. L., Acta Pharmacol. Sinica, 14, 47, 1993) was used for this test in order to observe whether the administration of L-carnitine or creatinol-phosphate or of the two products in combination might increase […] in treated animals as compared to controls.
In this test, different groups of mice received daily oral doses of 200 mg/kg of L-carnitine or 200 mg/kg of creatinol-phosphate or of the two compounds in combination over the 6-day period preceding the test. The animals were immersed in a tank full of water and swimming endurance time was measured.

For the next experiment, the system named is gastrocnemius muscle. Nature of the experiment: Forced muscular exercise test (treadmill), MDA content in gastrocnemius muscle. To be noted: rats, daily oral 200 mg/kg of each compound for 6 days; for MDA content in muscle, After 5 min: gastrocnemius muscle 5 min after end of treadmill test; for MDA content in muscle, After 30 min: gastrocnemius muscle 30 min after end of treadmill test. Format: in vivo. An excerpt: As is known, forced muscular exercise can produce structural and inflammatory-type lesions at muscle fibre level, due to the increased oxygen consumption and to production of reactive oxygen species (ROS). A marker of the level of ROS-induced lipid peroxidation of the muscle may be obtained from its malondialdehyde (MDA) concentration. For this test, the method described by Husain was used (Husain K., Pathophysiology, 4, 69, 1997) as modified by Li (Li J.X., Acta Pharmacologica Sinica, 20, 126, 1999) which consists essentially in examining rats on a treadmill at controlled belt speed and preset inclination. In this way the rats were made to run at a belt speed of 28 m/min and an inclination of approximately 5°. Exhaustion of the control animals subjected to the exercise occurred after approximately 90 minutes.
The test was performed on rats receiving daily oral treament over the 6-day period preceding the test with 200 mg/kg of L-carnitine or with 200 mg/kg of creatinol-phosphate or with the two compounds in combination.
Five minutes and 30 minutes, respectively, after the end of the test, the animals were sacrificed and samples of gastrocnemius muscle were taken for measurement of the malondialdehyde (MDA) content using the reaction with thiobarbituric acid according to the method described by Ohkawa (Ohkawa H. Angl. Biochem 95, 351, 1979).

Regarding `CN(CCOP(=O)(O)O)C(=N)N` [Creatinol-phosphate, 1-(2-hydroxyethyl)-1-methylguanidine-O-phosphate], in the experiment on mice, the “swimming endurance time (in words)” value is “increased swimming endurance time” and the Swimming time amounted to 124 ± 11 min. In the experiment on gastrocnemius muscle, the “MDA content in muscle, After 5 min” value amounted to 206 ± 16 nmol/g and the “MDA content in muscle, After 30 min” value was found to be 209 ± 12 nmol/g.
Consider `C[N+](C)(C)C[C@H](O)CC(=O)[O-]` [L-carnitine], for which, in the experiment with mice, the “swimming endurance time (in words)” value is reported as “increased swimming endurance time” and the Swimming time is on record as 118 ± 14 min. For the same molecule, in the experiment on gastrocnemius muscle, the “MDA content in muscle, After 5 min” value stood at 218 ± 11 nmol/g and the “MDA content in muscle, After 30 min” value is 216 ± 14 nmol/g.
